Source: patent US6046228A, “Anti-viral pharmaceutical compositions containing saturated 1,2-dithiaheterocyclic compounds and uses thereof” (priority 1999, dated 2000)
Read-outs that look alike come from different tables or passages of the source.

What was measured:
HIV-1RF = assay: XTT cytoprotection (cytopathicity) anti-HIV assay, CEM-SS cells; assay type: cell-based; settings: for EC50: Human immunodeficiency virus 1, CEM-SS
Procedure: (§1) Initial anti-HIV screening was performed with CEM-SS cells and HIV-1RFusing the XTT cytoprotection assay as previously described (Weislow et al., J. National Cancer Inst. 81: 577-586, (1989)). HIV-1 isolates included common laboratory stains (RF, IIIB and MN), as well as a panel of HIV-1 clinical isolates (Cushman et al., J. Med. Chem. 37: 3040-3050, (1994)). The pyridone-resistant HIV-1A17 isolate (Nunberg et al., J. Virol., 65: 4887-4892 (1991)) was obtained from Emilio Emini at Merck Sharpe and Dohme Laboratories. Phytohemagglutinin-stimulated human peripheral blood lymphocytes (PBLs) and fresh monocyte-macrophage (Mono/MF) cultures were prepared and utilized in antiviral assays as previously described (Rice et al., Proc. Nat'l. Academy Science, USA 90: 9721-9724, (1993)); (Cushman et al., J. Med. Chem. 37: 3040-3050, (1994)). EC50 values for these cultures indicate the drug concentration that provided a 50% reduction in viral p24 production. […] The compounds can be synthesized according to the teachings of Singh et al., Sulfur Letters 8: 107-114, (1988). […] MT-2, MT-4, U1, HeLa-CD4-LTR-β-gal and 174xCEM cells were obtained from the AIDS Research and Reference Program (National Institute of Allergy and Infectious Disease, National Institutes of Health, Bethesda, Md. USA), as were the HIV-2MS and the AZT-resistant HIV-1G910-6 isolates.
(§2) Racemate and enantiomers of the cis-1,1-dioxo[1,2]dithiane-4,5-diol were synthesized and evaluated for antiviral activity in the XTT assay as described hereinabove.

CEM-SS cells = assay: XTT assay, cytotoxicity (IC50), CEM-SS cells; assay type: cell-based; settings: Homo sapiens, CEM-SS, cytotoxicity, CEM-SS cells; read-out: XTT Assay IC50
Procedure: as §1, §2

HIV-1ADA = assay: antiviral assay in monocyte-macrophage cultures (p24); assay type: cell-based
Procedure: Initial anti-HIV screening was performed with CEM-SS cells and HIV-1RFusing the XTT cytoprotection assay as previously described (Weislow et al., J. National Cancer Inst. 81: 577-586, (1989)). HIV-1 isolates included common laboratory stains (RF, IIIB and MN), as well as a panel of HIV-1 clinical isolates (Cushman et al., J. Med. Chem. 37: 3040-3050, (1994)). The pyridone-resistant HIV-1A17 isolate (Nunberg et al., J. Virol., 65: 4887-4892 (1991)) was obtained from Emilio Emini at Merck Sharpe and Dohme Laboratories. Phytohemagglutinin-stimulated human peripheral blood lymphocytes (PBLs) and fresh monocyte-macrophage (Mono/MF) cultures were prepared and utilized in antiviral assays as previously described (Rice et al., Proc. Nat'l. Academy Science, USA 90: 9721-9724, (1993)); (Cushman et al., J. Med. Chem. 37: 3040-3050, (1994)). EC50 values for these cultures indicate the drug concentration that provided a 50% reduction in viral p24 production. […] The compounds can be synthesized according to the teachings of Singh et al., Sulfur Letters 8: 107-114, (1988). The 4,5-cis-dihydroxy(1,1-dioxy-1,2,-dithiohexane) compound (NSC 624151) has been abbreviated as 624151 for convenience. MT-2, MT-4, U1, HeLa-CD4-LTR-β-gal and 174xCEM cells were obtained from the AIDS Research and Reference Program (National Institute of Allergy and Infectious Disease, National Institutes of Health, Bethesda, Md. USA), as were the HIV-2MS and the AZT-resistant HIV-1G910-6 isolates. […]

[1] = system: monocyte-macrophage (Mo/M.PHI.) cultures; assay: cytotoxicity in monocyte-macrophage cultures; assay type: cell-based
Procedure: Initial anti-HIV screening was performed with CEM-SS cells and HIV-1RFusing the XTT cytoprotection assay as previously described (Weislow et al., J. National Cancer Inst. 81: 577-586, (1989)). HIV-1 isolates included common laboratory stains (RF, IIIB and MN), as well as a panel of HIV-1 clinical isolates (Cushman et al., J. Med. Chem. 37: 3040-3050, (1994)). The pyridone-resistant HIV-1A17 isolate (Nunberg et al., J. Virol., 65: 4887-4892 (1991)) was obtained from Emilio Emini at Merck Sharpe and Dohme Laboratories. Phytohemagglutinin-stimulated human peripheral blood lymphocytes (PBLs) and fresh monocyte-macrophage (Mono/MF) cultures were prepared and utilized in antiviral assays as previously described (Rice et al., Proc. Nat'l. Academy Science, USA 90: 9721-9724, (1993)); (Cushman et al., J. Med. Chem. 37: 3040-3050, (1994)). EC50 values for these cultures indicate the drug concentration that provided a 50% reduction in viral p24 production. […] The compounds can be synthesized according to the teachings of Singh et al., Sulfur Letters 8: 107-114, (1988). The 4,5-cis-dihydroxy(1,1-dioxy-1,2,-dithiohexane) compound (NSC 624151) has been abbreviated as 624151 for convenience. MT-2, MT-4, U1, HeLa-CD4-LTR-β-gal and 174xCEM cells were obtained from the AIDS Research and Reference Program (National Institute of Allergy and Infectious Disease, National Institutes of Health, Bethesda, Md. USA), as were the HIV-2MS and the AZT-resistant HIV-1G910-6 isolates.

HIV-1 p7NC protein = molecular target: T1, HIV-1 p7NC protein (Human immunodeficiency virus type 1 group M subtype B, UniProt P04591); assay: Trp37 zinc finger fluorescence assay (zinc ejection from p7NC); assay type: biochemical; settings: in words; for zinc ejection: FIG. 1(A)
T1 construct: recombinant HIV-1 p7NC protein
Procedure: Fluorescence measurements of the Trp^37 residue in the C-terminal zinc finger of the recombinant HIV-1 p7NC protein were performed as previously described (Rice et al., Science 270:1194, 1995). The p7NC protein was prepared at 20 μg/ml in 10 mM sodium phosphate buffer (pH 7.0), treated with 25 μM of each compound, then after indicated time intervals the samples were diluted 1/10 in 10 mM sodium phosphate buffer (pH 7.0) and the fluorescence intensity measured. The excitation and emission wavelengths utilized with the Shimadzu RF5000 spectrofluorimeter were 280 nm and 351 nm, respectively. In an alternate assay, the zinc-selective fluorescent probe N-(6-methoxy-8quinolyl-)-p-toluenesulfonamide (TSQ, Molecular Probes, Eugene, Oreg.) originally described by Fredrickson (J. Neurosci. Meth. 20:91, 1987) was utilized to measure zinc released from the p7NC protein in vitro. Briefly, 2 μM recombinant HIV-1 p7NC protein in 10 mM sodium phosphate buffer, pH 7.0, 10% glycerol was treated with 10 μM 624151 ([…] total volume in 96-well plates), and the time-dependent increase in fluorescence was measured on a Labsystems Fluoroskan II (360 nm excitation filter and 460 nm emission filter) over a period of 2 hours. Induction of alterations of p7NC proteins within intact virions involved treatment of HIV-1MN for 1 hour at 37° C. with 25 μM test compound. Samples were centrifuged 1 hour at 4° C. under 18,000×g to pellet the virus from the drug. Virus pellets were resolved by non-reducing SDS-PAGE and analyzed by immunoblot using monospecific rabbit antisera to the purified p7NC protein.
^b The percent decrease in RFU was calculated based on measurement of
the initial fluorescence of the p7NC protein before and 10 minutes after
treatment with the 25 μM of compound at ambient temperature.
The ability of 624151 to chemically interact with the zinc fingers of the HIV-1 p7NC protein was initially determined by a fluorescence assay (Rice et al., Science 270:1194-1197, (1995)) that measures a loss in intrinsic fluorescence of the tryptophan (Trp^37) residue in the second finger of the protein that occurs upon loss of zinc from the finger (Summers et al., Protein Sci. 1:563, 1992). […] As the 624151 modifies the zinc finger thiolates and the zinc is ejected over time, the metal is bound by the TSQ fluorochrome (FIG. 1(B)).
Sodium Phosphate buffer, pH 7.0 in 1 ml was treated with 25 μM of
compound. At indicated times, the mixture was diluted 1/10 and the
relative fluorescence units (RFU) measured in a Shimadzu RF5000
spectrofluorimeter with […] and Em = 351 mn. Following
loss of zinc from the Cterminal zinc finger, the Trp37 residue folds away
from the # aqueous environment and experiences a loss of fluorescence.

[2] = CEM-SS cells, HIV-1RF, read-out: XTT Assay EC50
[3] = Human immunodeficiency virus 1, read-out: Mo/M.PHI. EC50

SMILES	IC50 (CEM-SS cells)	IC50 [1]	EC50 (HIV-1ADA; [3])	other results
O=S1(=O)C[C@@H](O)[C@H](O)CS1 (relative stereo) [NSC 624152]	135 µM	> 100 µM	–	EC50 (HIV-1RF; [2]): 13.1 µM; antiviral activity / efficacy (HIV-1RF; in words): only a slight reduction in the antiviral efficacy; EC50 (HIV-1ADA; Human immunodeficiency virus 1, HIV-1ADA, monocyte/macrophage cultures, 50% reduction in p24, read-out: Mo/M.PHI. EC50): 9.1 µM; reactivity with the zinc fingers (HIV-1 p7NC protein): equivalent reactivity with the zinc fingers
[O-][S+]1CC(CO)(CO)CS1 (centres unmarked) [NSC 661753]	> 200 µM	> 100 µM	46 µM	–
CSC[C@H](NC(=O)COc1cccc2cnccc12)C(=O)N[C@@H](Cc1ccccc1)[C@H](O)C(=O)N1CSC[C@H]1C(=O)NC(C)(C)C [KNI-272, reference compound]	–	–	–	zinc ejection (HIV-1 p7NC protein): do not
O=C1NC(=O)C2(CSSC2)N1 [NSC 208750]	24.8 µM	–	–	EC50 (HIV-1RF; [2]): 1.83 µM
Nc1ccn([C@H]2CC[C@@H](CO)O2)c(=O)n1 [DDC, reference compound]	–	–	–	zinc ejection (HIV-1 p7NC protein): do not
O=C(O)CCCCC1CCSS1 (centres unmarked) [NSC 628502]	> 1210 µM	–	–	EC50 (HIV-1RF; read-out: XTT Assay EC50, CEM-SS cells, HIV-1RF): 590 µM
[O-][S+]1CCCCS1 (centres unmarked) [NSC 56224]	26.2 µM	> 100 µM	> 100 µM	–
[O-][S+]1C[C@@H](O)[C@H](O)CS1 (relative stereo) [NSC 663603]	59.3 µM	> 100 µM	> 100 µM	–
O=S1(=O)CCCCS1 [NSC 627175]	5.7 µM	> 100 µM	25 µM	–
O[C@@H]1CSSC[C@H]1O (relative stereo) [NSC 663605]	> 200 µM	> 100 µM	> 100 µM	–
CC(=O)O[C@@H]1CS[S+]([O-])C[C@H]1OC(C)=O (relative stereo) [NSC 667094]	22.1 µM	> 100 µM	5.5 µM	–
NC(=O)NN=C1CSSC1 [NSC 208744]	127 µM	–	–	EC50 (HIV-1RF; [2]): 28.7 µM
